What was measured:
[1] = biological target: Death-associated protein kinase 2 (Homo sapiens) (UniProt Q9UIK4); test: Residual activity of DAPK2 at 0.1 uM by microplate scintillation counting
[2] = biological target: T1, Ephrin type-B receptor 3 (Homo sapiens) (UniProt P54753); test: Residual activity of EPHB3 at 0.1 uM by microplate scintillation counting
T1 sequence (whole entry): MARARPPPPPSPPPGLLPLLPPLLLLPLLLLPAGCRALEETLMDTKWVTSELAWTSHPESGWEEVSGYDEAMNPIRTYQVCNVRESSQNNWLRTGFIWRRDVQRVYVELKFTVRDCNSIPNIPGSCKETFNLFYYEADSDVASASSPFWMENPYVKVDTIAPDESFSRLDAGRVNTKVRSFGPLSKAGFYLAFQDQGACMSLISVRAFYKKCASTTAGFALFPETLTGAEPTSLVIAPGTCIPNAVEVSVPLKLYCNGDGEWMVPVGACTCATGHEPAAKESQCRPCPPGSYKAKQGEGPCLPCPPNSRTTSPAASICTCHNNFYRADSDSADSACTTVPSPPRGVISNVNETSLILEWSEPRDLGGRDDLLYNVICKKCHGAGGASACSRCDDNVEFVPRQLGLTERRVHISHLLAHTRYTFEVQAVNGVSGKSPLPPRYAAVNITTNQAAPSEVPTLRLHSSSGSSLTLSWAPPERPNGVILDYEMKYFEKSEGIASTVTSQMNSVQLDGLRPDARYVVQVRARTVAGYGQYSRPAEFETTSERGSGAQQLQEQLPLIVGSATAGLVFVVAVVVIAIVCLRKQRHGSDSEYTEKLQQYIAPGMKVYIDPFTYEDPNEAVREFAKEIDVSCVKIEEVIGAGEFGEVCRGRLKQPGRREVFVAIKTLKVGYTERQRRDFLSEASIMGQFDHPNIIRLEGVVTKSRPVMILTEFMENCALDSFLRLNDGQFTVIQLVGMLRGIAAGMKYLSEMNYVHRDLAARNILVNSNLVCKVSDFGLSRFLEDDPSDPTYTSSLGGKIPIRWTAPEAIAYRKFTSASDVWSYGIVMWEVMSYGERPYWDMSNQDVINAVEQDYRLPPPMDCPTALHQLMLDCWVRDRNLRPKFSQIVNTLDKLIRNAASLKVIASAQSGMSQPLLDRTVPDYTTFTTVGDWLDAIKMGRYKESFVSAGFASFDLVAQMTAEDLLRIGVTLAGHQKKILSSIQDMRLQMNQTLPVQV

[3] = biological target: Insulin receptor (Homo sapiens) (UniProt P06213); test: Residual activity of INSR at 0.1 uM by microplate scintillation counting
[4] = biological target: T2, Tyrosine-protein kinase ITK/TSK (Homo sapiens) (UniProt Q08881); test: Residual activity of ITK at 10 uM by microplate scintillation counting
T2 sequence (whole entry): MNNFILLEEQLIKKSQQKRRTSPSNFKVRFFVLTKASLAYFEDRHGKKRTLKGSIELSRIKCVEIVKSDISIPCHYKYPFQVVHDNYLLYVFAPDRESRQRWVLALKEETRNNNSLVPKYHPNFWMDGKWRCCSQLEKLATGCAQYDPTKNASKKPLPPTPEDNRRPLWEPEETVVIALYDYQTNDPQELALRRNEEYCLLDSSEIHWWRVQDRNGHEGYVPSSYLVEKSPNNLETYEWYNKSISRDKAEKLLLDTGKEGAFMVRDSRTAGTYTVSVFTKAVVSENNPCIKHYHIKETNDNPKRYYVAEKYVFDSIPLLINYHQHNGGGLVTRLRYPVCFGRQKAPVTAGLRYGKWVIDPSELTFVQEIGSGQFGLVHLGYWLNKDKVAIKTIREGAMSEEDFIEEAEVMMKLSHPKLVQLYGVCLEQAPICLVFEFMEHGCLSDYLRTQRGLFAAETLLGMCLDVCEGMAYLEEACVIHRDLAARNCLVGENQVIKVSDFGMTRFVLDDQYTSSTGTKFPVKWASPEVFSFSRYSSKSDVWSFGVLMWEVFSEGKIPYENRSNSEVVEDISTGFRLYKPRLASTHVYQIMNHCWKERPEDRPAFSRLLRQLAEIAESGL

[5] = biological target: Cyclin-dependent kinase 1/cyclin B1 (Homo sapiens) (UniProt P06493+P14635); test: Residual activity of CDK1/CyclinB1 at 10 uM by microplate scintillation counting; format: protein-complex assay
[6] = biological target: T3, Tyrosine-protein kinase Mer (Homo sapiens) (UniProt Q12866); test: Residual activity of MERTK at 10 uM by microplate scintillation counting
T3 sequence (whole entry): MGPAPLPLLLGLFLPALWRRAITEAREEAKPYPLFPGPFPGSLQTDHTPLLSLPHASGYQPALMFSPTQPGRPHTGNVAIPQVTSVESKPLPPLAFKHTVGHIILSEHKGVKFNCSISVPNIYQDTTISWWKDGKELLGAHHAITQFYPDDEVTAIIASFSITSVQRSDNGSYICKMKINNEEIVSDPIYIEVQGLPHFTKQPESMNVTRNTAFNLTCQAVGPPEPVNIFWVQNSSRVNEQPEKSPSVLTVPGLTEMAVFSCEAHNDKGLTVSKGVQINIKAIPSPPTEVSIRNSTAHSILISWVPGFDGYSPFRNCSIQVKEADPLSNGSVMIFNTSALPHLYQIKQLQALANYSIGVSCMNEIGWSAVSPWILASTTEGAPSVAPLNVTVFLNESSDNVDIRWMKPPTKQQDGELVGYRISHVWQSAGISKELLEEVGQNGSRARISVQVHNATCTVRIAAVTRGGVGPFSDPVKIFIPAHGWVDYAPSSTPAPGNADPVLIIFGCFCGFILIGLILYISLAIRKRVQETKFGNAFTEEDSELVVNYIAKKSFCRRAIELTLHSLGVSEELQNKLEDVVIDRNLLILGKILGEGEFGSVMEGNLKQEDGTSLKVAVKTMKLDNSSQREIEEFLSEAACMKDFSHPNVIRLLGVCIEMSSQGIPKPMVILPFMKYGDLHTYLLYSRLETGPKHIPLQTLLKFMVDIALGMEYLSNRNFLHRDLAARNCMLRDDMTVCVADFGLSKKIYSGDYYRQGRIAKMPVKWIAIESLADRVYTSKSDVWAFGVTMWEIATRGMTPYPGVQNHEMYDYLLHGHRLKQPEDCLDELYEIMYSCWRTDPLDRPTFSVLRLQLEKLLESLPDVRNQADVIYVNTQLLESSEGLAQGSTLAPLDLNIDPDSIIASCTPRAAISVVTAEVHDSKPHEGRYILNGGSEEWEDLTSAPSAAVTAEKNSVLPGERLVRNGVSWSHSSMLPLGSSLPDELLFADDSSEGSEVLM

[7] = biological target: Cyclin-dependent kinase 4/cyclin D1 (Homo sapiens) (UniProt P11802+P24385); test: Residual activity of CDK4/Cyclin D1 at 1 uM by microplate scintillation counting; format: protein-complex assay

Insulin receptor (Homo sapiens), sequence (P06213 28-758 limits assumed): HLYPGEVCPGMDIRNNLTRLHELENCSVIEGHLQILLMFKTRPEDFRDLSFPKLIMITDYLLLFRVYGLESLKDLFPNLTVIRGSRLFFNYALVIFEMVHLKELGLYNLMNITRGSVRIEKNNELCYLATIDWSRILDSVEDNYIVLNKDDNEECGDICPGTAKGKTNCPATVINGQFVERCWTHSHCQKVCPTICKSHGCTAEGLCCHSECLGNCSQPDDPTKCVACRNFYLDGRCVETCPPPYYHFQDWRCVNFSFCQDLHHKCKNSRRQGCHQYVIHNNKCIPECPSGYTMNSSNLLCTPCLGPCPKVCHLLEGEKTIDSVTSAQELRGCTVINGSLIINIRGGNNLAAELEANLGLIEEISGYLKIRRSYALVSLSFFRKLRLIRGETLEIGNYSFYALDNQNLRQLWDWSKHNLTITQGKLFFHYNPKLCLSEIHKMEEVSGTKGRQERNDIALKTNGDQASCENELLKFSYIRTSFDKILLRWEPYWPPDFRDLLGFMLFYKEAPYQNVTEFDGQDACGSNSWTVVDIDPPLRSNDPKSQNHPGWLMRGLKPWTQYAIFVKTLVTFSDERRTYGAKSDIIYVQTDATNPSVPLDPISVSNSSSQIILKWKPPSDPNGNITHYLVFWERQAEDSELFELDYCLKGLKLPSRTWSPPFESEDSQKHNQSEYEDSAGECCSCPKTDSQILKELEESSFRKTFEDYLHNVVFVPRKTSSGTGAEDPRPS
Insulin receptor (Homo sapiens), sequence (P06213 763-1382 limits assumed): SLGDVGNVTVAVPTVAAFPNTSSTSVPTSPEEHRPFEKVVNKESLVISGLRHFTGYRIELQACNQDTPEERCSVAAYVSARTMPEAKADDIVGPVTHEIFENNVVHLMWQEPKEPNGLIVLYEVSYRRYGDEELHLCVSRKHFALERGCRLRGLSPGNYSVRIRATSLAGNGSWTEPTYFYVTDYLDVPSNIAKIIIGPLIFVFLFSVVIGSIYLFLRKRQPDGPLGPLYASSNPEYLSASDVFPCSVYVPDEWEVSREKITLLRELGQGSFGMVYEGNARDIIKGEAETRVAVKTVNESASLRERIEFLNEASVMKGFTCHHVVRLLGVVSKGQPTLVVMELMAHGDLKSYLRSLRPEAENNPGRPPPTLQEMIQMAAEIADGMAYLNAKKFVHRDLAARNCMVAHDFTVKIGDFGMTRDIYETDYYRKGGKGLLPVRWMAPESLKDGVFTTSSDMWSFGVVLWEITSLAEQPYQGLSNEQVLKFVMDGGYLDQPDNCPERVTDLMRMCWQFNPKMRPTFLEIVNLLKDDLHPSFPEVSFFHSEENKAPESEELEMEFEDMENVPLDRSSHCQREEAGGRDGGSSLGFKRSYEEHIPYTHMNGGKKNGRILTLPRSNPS
Death-associated protein kinase 2 (Homo sapiens), sequence (Q9UIK4 whole entry, looked up): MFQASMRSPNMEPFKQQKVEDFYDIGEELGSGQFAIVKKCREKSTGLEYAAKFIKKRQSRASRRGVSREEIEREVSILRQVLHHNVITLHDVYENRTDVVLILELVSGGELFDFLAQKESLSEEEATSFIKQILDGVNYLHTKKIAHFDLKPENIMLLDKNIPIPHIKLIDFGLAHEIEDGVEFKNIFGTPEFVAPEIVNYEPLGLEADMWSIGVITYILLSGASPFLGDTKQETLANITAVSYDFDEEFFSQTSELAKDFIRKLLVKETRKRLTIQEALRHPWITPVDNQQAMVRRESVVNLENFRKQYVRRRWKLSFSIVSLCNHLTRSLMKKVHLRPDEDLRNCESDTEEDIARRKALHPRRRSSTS
Cyclin-dependent kinase 1/cyclin B1 (Homo sapiens), sequence (P06493 whole entry, looked up): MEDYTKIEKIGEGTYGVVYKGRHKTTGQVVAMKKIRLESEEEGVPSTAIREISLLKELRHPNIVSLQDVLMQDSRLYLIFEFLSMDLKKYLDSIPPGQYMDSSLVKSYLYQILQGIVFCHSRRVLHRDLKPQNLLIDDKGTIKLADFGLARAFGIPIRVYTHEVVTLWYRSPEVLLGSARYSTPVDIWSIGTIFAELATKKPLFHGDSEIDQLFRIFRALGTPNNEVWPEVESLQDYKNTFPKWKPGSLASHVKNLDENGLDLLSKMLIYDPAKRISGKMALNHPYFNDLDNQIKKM
Cyclin-dependent kinase 1/cyclin B1 (Homo sapiens), sequence (P14635 whole entry, looked up): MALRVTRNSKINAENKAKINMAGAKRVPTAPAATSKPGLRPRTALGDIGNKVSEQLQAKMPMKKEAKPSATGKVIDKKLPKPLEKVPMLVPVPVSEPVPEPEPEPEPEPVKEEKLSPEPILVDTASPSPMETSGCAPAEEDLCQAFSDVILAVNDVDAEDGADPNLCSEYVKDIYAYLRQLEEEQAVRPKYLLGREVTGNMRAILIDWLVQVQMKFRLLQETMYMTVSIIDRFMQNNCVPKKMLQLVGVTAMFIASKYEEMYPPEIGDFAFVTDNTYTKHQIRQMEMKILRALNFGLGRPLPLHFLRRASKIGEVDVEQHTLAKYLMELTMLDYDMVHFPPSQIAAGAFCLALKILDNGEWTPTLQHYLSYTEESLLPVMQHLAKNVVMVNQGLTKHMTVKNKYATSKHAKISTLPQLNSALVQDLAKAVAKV

residual activity [2]	residual activity [3]	residual activity [4]	residual activity [5]	residual activity [6]	residual activity [7]	SMILES	residual activity [1]
102%	96%	117%	96%	1%	98%	COc1cc2c(Oc3ccc(-c4nc5ccccc5s4)cc3)ncnc2cc1OCCCN1CCCC1	96%
112%	100%	99%	111%	3%	100%	COc1cc2c(Oc3ccc(-c4nc5ccccc5s4)cc3)ncnc2cc1OCCCN1CCN(C)CC1	81%
117%	96%	63%	100%	2%	94%	COc1cc2c(Oc3ccc(-c4nc5ccccc5s4)cc3F)ncnc2cc1OCCCN1CCN(C)CC1	85%
